Measured values published in US5395947A, “Platinum(II) complex and processes for preparing the same” (Sunkyong Industries, Ltd., priority 1991, dated 1995).

Tests used:
[1] = test system: murine leukemia L1210 cells; experiment: Growth inhibition test on cultured murine leukemia L1210 cells; assay type: cell-based; details: 48 hours, 37° C., Trypan blue viability
How it was run: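 L1210 cells (1×10^5) exposed to graded compound concentrations in RPMI 1640 with 10% fetal calf serum, 37° C, 5% CO2, 48 h. Viability by 0.17% Trypan blue staining, relative to untreated control cells.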

murine leukemia L1210 = experiment: Antitumor activity test on murine leukemia L1210 in vivo; design: species or system male BDF1 mice; details: days 1, 5, 9
How it was run: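 Intraperitoneal L1210 model: 1×10^6 cells inoculated i.p. into 6-week-old male BDF1 mice (21±3 g) on day 0, seven per group. Compounds in 0.5% CMC given i.p. on days 1, 5 and 9; vehicle-only controls. T/C % from mean survival time of treated over control.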

[2] = Test for water solubility; assay type: physicochemical; details: water
Text: 3. Test for water solubility
A standard plot of UV absorbance(220 nm) vs. concentration was made; and employed to determine water-solubility.
The mixture was then passed through a 0.45 micron disposable membrane filter before dilution and UV measurement.

ICR mice = experiment: Acute toxicity test; assay type: in vivo; design: Lethality: unit not given here; details: for Lethality: 10080 min
Experimental: 7-week-old ICR mice(male: 34±2 g; female: 31±2 g) were fed with solid food and water under the condition of 23±1° C. temperature and 65±5% humidity before the test.
Each treatment group consisted of 6 mice. The test compounds were administered intraperitoneally.
For 7 days after the administration, the appearance and the fate of the tested animals were recorded. The dead animals were subjected to autopsy and their visible pathological changes were observed. Their viscerals were stored in 10% formalin solution.

SMILES: O=C1[O][Pt-2]2([NH2+]CC3OC4(CCCC4)OC3C[NH2+]2)[O]C(=O)C12CCC2 [Example 30, cis-cyclobutane-1,1-dicarboxylato[(4R,5R)-4,5-bis(aminomethyl)-1,3-dioxolane-2-spiro-1'-cyclopentane]platinum(II)]
- IC50 (concentration required for 50% inhibition of growth) [1]: 0.55 µg/mL
- T/C (%) (murine leukemia L1210; 6.2 mg/kg i.p.): 109%
- T/C (%) (murine leukemia L1210; 12.5 mg/kg i.p.): 122%
- T/C (%) (murine leukemia L1210; 25 mg/kg i.p.): 110%
- T/C (%) (murine leukemia L1210; 50 mg/kg i.p.): 148%
- T/C (%) (murine leukemia L1210; 100 mg/kg i.p.): 185%
- Solubility in water [2]: 1900 µg/mL
- Number of dead mice for 7 days (ICR mice; female, 94 mg/kg i.p.): 0/6
- Number of dead mice, 1st day (ICR mice; female, 94 mg/kg i.p.): 0/6
- Number of dead mice for 7 days (ICR mice; female, 123 mg/kg i.p.): 0/6
- Number of dead mice, 1st day (ICR mice; female, 123 mg/kg i.p.): 0/6
- Number of dead mice for 7 days (ICR mice; female, 160 mg/kg i.p.): 1/6
- Number of dead mice, 1st day (ICR mice; female, 160 mg/kg i.p.): 0/6
- Number of dead mice, 5th day (ICR mice; female, 160 mg/kg i.p.): 1/6
- Lethality (ICR mice; female, 160 mg/kg i.p.): 16.7
- Number of dead mice for 7 days (ICR mice; female, 208 mg/kg i.p.): 4/6
- Number of dead mice, 1st day (ICR mice; female, 208 mg/kg i.p.): 0/6
- Number of dead mice, 3rd day (ICR mice; female, 208 mg/kg i.p.): 2/6
- Number of dead mice, 4th day (ICR mice; female, 208 mg/kg i.p.): 2/4
- Lethality (ICR mice; female, 208 mg/kg i.p.): 66.7
- Number of dead mice for 7 days (ICR mice; female, 270 mg/kg i.p.): 6/6
- Number of dead mice, 1st day (ICR mice; female, 270 mg/kg i.p.): 0/6
- Number of dead mice, 2nd day (ICR mice; female, 270 mg/kg i.p.): 4/6
- Number of dead mice, 3rd day (ICR mice; female, 270 mg/kg i.p.): 2/2
- Lethality (ICR mice; female, 270 mg/kg i.p.): 100.0
- Number of dead mice for 7 days (ICR mice; male, 94 mg/kg i.p.): 0/6
- Number of dead mice, 1st day (ICR mice; male, 94 mg/kg i.p.): 0/6
- Number of dead mice for 7 days (ICR mice; male, 123 mg/kg i.p.): 0/6
- Number of dead mice, 1st day (ICR mice; male, 123 mg/kg i.p.): 1/6
- Number of dead mice for 7 days (ICR mice; male, 160 mg/kg i.p.): 1/6
- Number of dead mice, 1st day (ICR mice; male, 160 mg/kg i.p.): 0/6
- Number of dead mice, 4th day (ICR mice; male, 160 mg/kg i.p.): 1/6
- Lethality (ICR mice; male, 160 mg/kg i.p.): 16.7
- Number of dead mice for 7 days (ICR mice; male, 208 mg/kg i.p.): 5/6
- Number of dead mice, 1st day (ICR mice; male, 208 mg/kg i.p.): 1/6
- Number of dead mice, 2nd day (ICR mice; male, 208 mg/kg i.p.): 1/6
- Number of dead mice, 3rd day (ICR mice; male, 208 mg/kg i.p.): 3/5
- Lethality (ICR mice; male, 208 mg/kg i.p.): 83.3
- Number of dead mice for 7 days (ICR mice; male, 270 mg/kg i.p.): 6/6
- Number of dead mice, 1st day (ICR mice; male, 270 mg/kg i.p.): 0/6
- Number of dead mice, 2nd day (ICR mice; male, 270 mg/kg i.p.): 2/6
- Number of dead mice, 3rd day (ICR mice; male, 270 mg/kg i.p.): 4/4
- Lethality (ICR mice; male, 270 mg/kg i.p.): 100.0
